According to patent publication US11077088B2, “Composition and apparatus for treatment of chemotherapy induced alopecia” (Paxman Coolers Ltd, priority 2016, dated 2021):

System: HaCaTa cells

| SMILES | protection from drug-induced toxicity (Absorbance units) (0.625 mM NAC plus cooling at 22° C., extremely high doses of 4-OH-CP (FIG. 5)) | cytoprotection from combinatorial drug treatment (AC), versus cooling alone (0.625 mM NAC plus cooling at 26° C. or 22° C., sequential doxorubicin 3 μg/ml (1 h) and 4-OH-CP 5 μg/ml (1 h) (FIG. 7)) | cytoprotection of cooling at 26° C. with inhibition of ROS, compared with 22° C. at same CP concentration (0.625 mM NAC plus cooling at 26° C., 4-OH-CP (FIG. 4 vs FIG. 3)) | protection from drug-induced toxicity (% relative to control) (0.625 mM NAC plus cooling at 26° C., extremely high doses of doxorubicin (FIG. 6)) | cytotoxicity of the drug in keratinocytes |
| --- | --- | --- | --- | --- | --- |
| CC(=O)N[C@@H](CS)C(=O)O [NAC, N-acetyl-cysteine] | strikingly high levels of protection | better cytoprotection | highly cytoprotective | strikingly high levels of protection |  |
| COc1cccc2c1C(=O)c1c(O)c3c(c(O)c1C2=O)C[C@@](O)(C(=O)CO)C[C@@H]3O[C@H]1C[C@H](N)[C@H](O)[C@H](C)O1 [doxorubicin] |  |  |  |  | nearly total cytotoxicity (death) |
